The numbers were not newly measured in US5891887A, “Use of [R-(Z)]-α-(methoxyimino)-α-(1-azabicyclo [2.2.2.]oct-3-yl)acetonitrile to reduce amyloid βA4 formation in alzheimer's disease” (priority 1994, dated 1999), which cites them from elsewhere.

The subject of this data set is m1 and/or m3 receptor subtypes. The settings on record: by activation of m1 and/or m3 receptor subtypes; literature.
Turning to `CCCCCCOc1nsnc1C1=CCCN(C)C1` [xanomeline], the “Production of non-amyloidogenic APP fragments” value is reported as “enhance”. As to `CC(C[N+](C)(C)C)OC(N)=O` (stereo not drawn) [bethanechol], the “Production of non-amyloidogenic APP fragments” value was “enhance”. In the case of `CC1OC2(CS1)CN1CCC2CC1` (stereo not drawn) [AF-102B], the “Production of non-amyloidogenic APP fragments” value is reported as “enhance”.
